US20100041089A1, “IMPROVED METHOD FOR DETECTING CHEMICAL […]” (priority 2006, published 2010)

Tested on: yeast genes (expressed mRNA)
Assay: DNA chip measurement of expressed mRNA of yeast genes after culture with a toxic chemical substance
Format: cell-based, Saccharomyces cerevisiae S288C
Details: for level of expressed mRNA in the presence of chemical substance / level in the absence of chemical substance: cultured two hours with the chemical substance; for The level of expressed mRNA in the presence of chemical substance/The level of expressed mRNA in the absence of chemical substance: cultured two hours with substance
In short: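 Expression is given as treated/untreated fluorescence ratio on a whole-genome yeast DNA chip, a ratio of two or more being significant. Log-phase S288C cultures in YPD at 25 °C received the chemical for 2 h at a dose that slows growth without killing. mRNA was reverse-transcribed with Cy3- or Cy5-dUTP.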

[Cl][Cd][Cl] [(2), CdCl2]
level of expressed mRNA in the presence of chemical substance / level in the absence of chemical substance (yeast gene YDR128W): 3.9 | level of expressed mRNA in the presence of chemical substance / level in the absence of chemical substance (yeast gene YDR133C): 1.1 | level of expressed mRNA in the presence of chemical substance / level in the absence of chemical substance (yeast gene YDR250C): 1.4 | level of expressed mRNA in the presence of chemical substance / level in the absence of chemical substance (yeast gene YDR278C): 3.2 | level of expressed mRNA in the presence of chemical substance / level in the absence of chemical substance (yeast gene YDR281C): 2.6 | The level of expressed mRNA in the presence of chemical substance/The level of expressed mRNA in the absence of chemical substance (yeast gene YDR330W): 1.5 | level of expressed mRNA in the presence of chemical substance / level in the absence of chemical substance (yeast gene YDR366C): 2.0 | The level of expressed mRNA in the presence of chemical substance/The level of expressed mRNA in the absence of chemical substance (yeast gene YDR411C): 2.8 | The level of expressed mRNA in the presence of chemical substance/The level of expressed mRNA in the absence of chemical substance (yeast gene YDR511W): 1.7 | The level of expressed mRNA in the presence of chemical substance/The level of expressed mRNA in the absence of chemical substance (yeast gene YDR545W): 1.2 | The level of expressed mRNA in the presence of chemical substance/The level of expressed mRNA in the absence of chemical substance (yeast gene YEL001C): 1.0 | The level of expressed mRNA in the presence of chemical substance/The level of expressed mRNA in the absence of chemical substance (yeast gene YER004W): 1.5 | The level of expressed mRNA in the presence of chemical substance/The level of expressed mRNA in the absence of chemical substance (yeast gene YER035W): 1.6 | The level of expressed mRNA in the presence of chemical substance/The level of expressed mRNA in the absence of chemical substance (yeast gene YER079W): 1.6 | The level of expressed mRNA in the presence of chemical substance/The level of expressed mRNA in the absence of chemical substance (yeast gene YER106W): 0.7 | The level of expressed mRNA in the presence of chemical substance/The level of expressed mRNA in the absence of chemical substance (yeast gene YER158C): 0.9 | The level of expressed mRNA in the presence of chemical substance/The level of expressed mRNA in the absence of chemical substance (yeast gene YER163C): 2.4 | The level of expressed mRNA in the presence of chemical substance/The level of expressed mRNA in the absence of chemical substance (yeast gene YER175C): 1.2 | The level of expressed mRNA in the presence of chemical substance/The level of expressed mRNA in the absence of chemical substance (yeast gene YFL006W): 2.8 | The level of expressed mRNA in the presence of chemical substance/The level of expressed mRNA in the absence of chemical substance (yeast gene YFL010C): 4.8 | The level of expressed mRNA in the presence of chemical substance/The level of expressed mRNA in the absence of chemical substance (yeast gene YFL024C): 1.1 | The level of expressed mRNA in the presence of chemical substance/The level of expressed mRNA in the absence of chemical substance (yeast gene YFL032W): 1.5 | level of expressed mRNA in the presence of chemical substance / level in the absence of chemical substance (yeast gene YFR026C): 2.0 | The level of expressed mRNA in the presence of chemical substance/The level of expressed mRNA in the absence of chemical substance (yeast gene YGL037C): 2.7 | The level of expressed mRNA in the presence of chemical substance/The level of expressed mRNA in the absence of chemical substance (yeast gene YGL047W): 1.9 | The level of expressed mRNA in the presence of chemical substance/The level of expressed mRNA in the absence of chemical substance (yeast gene YGL053W): 1.5 | level of expressed mRNA in the presence of chemical substance / level in the absence of chemical substance (yeast gene YGL088W): 2.1 | The level of expressed mRNA in the presence of chemical substance/The level of expressed mRNA in the absence of chemical substance (yeast gene YGL121C): 5.0 | The level of expressed mRNA in the presence of chemical substance/The level of expressed mRNA in the absence of chemical substance (yeast gene YGL199C): 1.7 | level of expressed mRNA in the presence of chemical substance / level in the absence of chemical substance (yeast gene YGR038W): 1.2 | The level of expressed mRNA in the presence of chemical substance/The level of expressed mRNA in the absence of chemical substance (yeast gene YGR101W): 1.3 | The level of expressed mRNA in the presence of chemical substance/The level of expressed mRNA in the absence of chemical substance (yeast gene YGR110W): 3.1 | The level of expressed mRNA in the presence of chemical substance/The level of expressed mRNA in the absence of chemical substance (yeast gene YGR130C): 0.7 | level of expressed mRNA in the presence of chemical substance / level in the absence of chemical substance (yeast gene YGR139W): 3.7 | The level of expressed mRNA in the presence of chemical substance/The level of expressed mRNA in the absence of chemical substance (yeast gene YGR154C): 2.9 | The level of expressed mRNA in the presence of chemical substance/The level of expressed mRNA in the absence of chemical substance (yeast gene YGR221C): 2.2 | level of expressed mRNA in the presence of chemical substance / level in the absence of chemical substance (yeast gene YGR243W): 2.2 | level of expressed mRNA in the presence of chemical substance / level in the absence of chemical substance (yeast gene YGR293C): 1.9 | level of expressed mRNA in the presence of chemical substance / level in the absence of chemical substance (yeast gene YHL006C): 1.4 | level of expressed mRNA in the presence of chemical substance / level in the absence of chemical substance (yeast gene YHR095W): 2.6 | level of expressed mRNA in the presence of chemical substance / level in the absence of chemical substance (yeast gene YHR105W): 0.8 | The level of expressed mRNA in the presence of chemical substance/The level of expressed mRNA in the absence of chemical substance (yeast gene YHR138C): 1.8 | level of expressed mRNA in the presence of chemical substance / level in the absence of chemical substance (yeast gene YHR181W): 0.7 | The level of expressed mRNA in the presence of chemical substance/The level of expressed mRNA in the absence of chemical substance (yeast gene YHR199C): 2.0 | The level of expressed mRNA in the presence of chemical substance/The level of expressed mRNA in the absence of chemical substance (yeast gene YIL023C): 1.2 | The level of expressed mRNA in the presence of chemical substance/The level of expressed mRNA in the absence of chemical substance (yeast gene YIL041W): 1.2 | The level of expressed mRNA in the presence of chemical substance/The level of expressed mRNA in the absence of chemical substance (yeast gene YIL087C): 1.9 | level of expressed mRNA in the presence of chemical substance / level in the absence of chemical substance (yeast gene YIL127C): 4.8 | level of expressed mRNA in the presence of chemical substance / level in the absence of chemical substance (yeast gene YJL017W): 1.7 | level of expressed mRNA in the presence of chemical substance / level in the absence of chemical substance (yeast gene YJL037W): 1.4 | The level of expressed mRNA in the presence of chemical substance/The level of expressed mRNA in the absence of chemical substance (yeast gene YJL057C): 1.2 | The level of expressed mRNA in the presence of chemical substance/The level of expressed mRNA in the absence of chemical substance (yeast gene YJL066C): 1.2 | The level of expressed mRNA in the presence of chemical substance/The level of expressed mRNA in the absence of chemical substance (yeast gene YJL082W): 0.8
